According to patent publication US6989270B1, “Using polyamide nucleic acid oligomers to engender a biological response” (Mayo Foundation for Medical Education and Research, priority 1997, dated 2006):
Read-outs that look alike come from different tables or passages of the source.

Columns and labels:
[1] = system: [125I]neurotensin binding sites (NT receptors); experiment: [125I]neurotensin binding assay, PAG and hypothalamus homogenates of treated rats; assay type: in vivo, rat; details: for number of receptors (mean ± SEM in fmol/mg wet wt.) / percent of control / Kd: 24 hours after single oral 10 mg/kg; for Kd: [125I]neurotensin, read-out: KD (mean ± SEM in nM)
[2] = system: neurotensin receptor-1 (NTR1); experiment: NT-induced hypothermia (rectal body temperature) in PNA-treated rats; assay type: in vivo, rat
Description: NTR1-PNA, MU1R-PNA, and ACSF treated as well as untreated rats were analyzed using the hot plate test for NT. One day after the last treatment, each rat was analyzed as follows. Fifteen minutes prior to testing, a pre-drug latency measurement was made by placing the rat on a hot plate maintained at a temperature of 52±0.15° C. and recording the time elapsed before the rat licked either of its hindpaws. In addition, the temperature of the rat was taken using a thermister probe inserted 3 cm in the rectum to determine the pre-drug body temperature (BT). After making these measurement, an appropriate dose of NT (18 nmol) at a volume of about 0.5 ul was administered into the PAG as described above. Thirty minutes after administering NT, the rat was again placed on a hot plate maintained at a temperature of 52±0.15° C. and the latency between the time the rat was placed on the surface and the time it licked either of its hindpaws was measured. […] Hot plate tests were scored as the percent of maximum possible effect (% MPE) and calculated using the following equation: % MPE=[(post-drug latency−pre-drug latency)/(cut-off−pre-drug latency)]×100; where the cut-off is 30 seconds. […] This average for untreated control rats was used to set the baseline MPE value to 100. Immediately after the 30 second hot plate test, BT was taken to measure NT-induced hypothermia using a thermister probe inserted 3 cm in the rectum. […] All test situations were compared to these baseline values derived from NT responsive untreated controls.
(§1) AS-NTR1-PNA, mismatch-AS-NTR1-PNA, and MU1R-PNA were injected intraperitoneally (10 mg/kg) independently, into separate groups of male Sprague-Dawley rats (Harlan, Prattville, Ala.). The sense-NTR1-PNA oligomer, however, was microinjected directly into the periaqueductal gray (PAG; 5 μg), the major area in the brain involved with perception of pain (nociception). […] Thirty minutes after receiving NT, animals were scored for anti-nociception (hot plate at 52° C.) and hypothermia (rectal probe). Again, anti-nociception scores were calculated as percent of maximum possible effect (% MPE) with the following equation: % MPE=[(post-drug latency time minus pre-drug latency time)/(cut-off time minus pre-drug latency time)]×100; where the cut-off time (i.e., the time when the animal was removed from the device) was 30 seconds for a hot plate test and 12 seconds for a tail flick test. Statistical analysis was done using the rank sum test.

[3] = system: morphine binding sites; experiment: [3H]morphine binding in rest of brain and small intestine after i.p. AS-NTR1-PNA (Example 8); details: for Binding (% change vs control) Morphine: 24 hours after i.p. injection
[4] = system: mu-1 receptor (MU1R); experiment: Tail flick test of MOR-mediated anti-nociception in PNA-treated rats; assay type: in vivo, rat
Description: The injection of MOR into rats produces a potent anti-nociceptive response. This response is mediated by specific MOR receptors and is inhibited by naloxone. A very sensitive and reliable tail flick test was devised and used to measure the anti-nociceptive effects of MOR (D'Amour F. E. and Smith D. L, J. Pharm. Exp. Therap. 72:74-79 (1941)).
MU1R-PNA, NTR1-PNA, and ACSF treated as well as untreated rats were analyzed using the MOR-specific tail flick test. One day after the last treatment, each rat was analyzed as follows. Thirty minutes prior to testing, a pre-drug latency measurement was made by placing the tail of the restrained rat in oil maintained at a temperature of 60° C. and recording the time elapsed before the rat flicked its tail. After making this measurement, an appropriate dose of MOR (5 mg/kg of body weight) at a volume of about 200 μl was injected i.p. Thirty minutes after administering MOR, the restrained rat's tail was again placed in the oil maintained at 60° C. and the latency between the time the tail was placed in the oil and the time the rat flicked its tail was measured. […] Tail flick tests were scored as the percent of MPE and calculated using the following equation: % MPE=[(post-drug latency−pre-drug latency)/(cut-off−pre-drug latency)]×100; where the cut-off is 12 seconds. […] This average for untreated control rats was used to set the baseline A MPE value to 100. All test situations were compared to this baseline response value derived from MOR responsive untreated controls. To test the significance, data were analyzed using the Student's t-test with p<0.05 being considered significant.
as §1

[5] = system: MU1R mRNA; experiment: Quantitative RT-PCR of MU1R mRNA relative to GAPDH; assay type: in vivo; details: treated intracranially, 5 μg
Description: Messenger RNA (mRNA) levels for NTR1, MU1R, and GAPDH were measured in control and PNA-treated animals. Briefly, total RNA was isolated from approximately 20 mg of tissue using the S.N.A.P. total RNA Isolation Kit (Invitrogen, Carlsbad, Calif.). Quantitative RT-PCR was performed on treated and control animals using GAPDH as an internal standard and PCR fragments of the human NTR and of a GAPDH deletion mutant as exogenous standards. First strand cDNA was synthesized from approximately 500 ng of total RNA using the cDNA Cycle Kit (Invitrogen, Carlsbad, Calif.). PCR was performed on a GeneAmp PCR System 9600 (Perkin Elmer, Norwalk, Conn.) using end-labeled primer and TAq DNA Polymerase (Gibco-BRL, Gaithersburg, Md.). Products were separated on a 5% acrylamide gel containing 7 M urea, and detected using a Storm860 Phosphoimager (Molecular Dynamics, Sunnyvale, Calif.). Data were analyzed using ImageQuant Software (Molecular Dynamics, Sunnyvale Calif.). To control for any diurnal mRNA level fluctuations that may occur, the PNA injection time was controlled such that the tissue harvest time was identical in each animal group.

For “NTR1-PNA: 12-mer antisense PNA oligomer to rat NTR1 coding region, 5′-CATTGCTCAAAC-3′ (SEQ ID NO: 1) (all peptide nucleic acid (PNA))”, the “% Control dpm's” value ([1]; Hypothalamus tissue, untreated control, PNA injected into PAG) was 55 % Control, the “number of receptors (mean ± SEM in fmol/mg wet wt.)” value ([1]; Hypothalamus) was 240 ± 30 fmol/mg wet wt and the percent of control ([1]; Hypothalamus) was 51%. The “NT binding sites reduced” value ([1]; PAG and hypothalamus, 24 hours after oral 10 mg/kg) was 50%, the “number of receptors (mean ± SEM in fmol/mg wet wt.)” value ([1]; PAG) was 140 ± 20 fmol/mg wet wt and the percent of control ([1]; PAG) was 48%. The Kd ([1]; PAG of treated rats) was 8.2 ± 0.7 nM, the Kd ([1]; hypothalamus of treated rats) was 7 ± 0.8 nM and the “body temperature change in response to NT” value ([2]; 10 mg/kg intraperitoneally, NT 18 nmol 24 hours later) was −0.5 °C. For the same substance, the “time until which NT-mediated hypothermia remained significantly reduced” value ([2]; PNA injected into PAG on days -4, -2, 0) was “day six”, the “ED50 for reducing NT hypothermia” value ([2]; intraperitoneal dose-response, one batch of PNA) was 3.2 mg/kg and the “Binding (% change vs control) Morphine” value ([3]; Rest of Brain) was 2 ± 2 % change vs control. For the same substance, the “Binding (% change vs control) Morphine” value ([3]; Small Intestine) was −7 ± 8 % change vs control, the “number of morphine binding sites compared to controls” value ([3]; rest of brain or small intestine) was “no significant difference” and the “anti-nociception score (tail flick) after MOR” value ([4]; 10 mg/kg i.p. treated animals lacking NT anti-nociception, MOR 5 mg/kg i.p.) was 95 % MPE. For the same substance, the “MPE (tail flick) response to MOR challenge as percent of baseline response” value ([4]; PNA injected into PAG on days -4, -2, 0, MOR 5 mg/kg i.p.) was “indistinguishable from baseline responses”, the “Responsiveness: Morphine (anti-nociception)” value ([4]; intraperitoneal administration, Table VI) was “normal” and the “change in MU1R/GAPDH ratio of mRNA” value [5] was “no significant change”.
